In brackets after ≈: the same amount, converted by molar mass.
Columns and labels:
Assay in all cases: Antibacterial assay (standard microtitration), MIC
Type in all cases: cell-based
E. coli MC4100 = conditions: Escherichia coli, MC4100; Gram Negative Bacteria; Table 1A; read-out: Minimum Inhibitory Concentrations, E. coli MC4100
Method: (§1) Test A—Antibacterial Assays
(§2) The compounds of the present invention were tested against an assortment of Gram-negative and Gram-positive organisms using standard microtitration techniques (Cohen et. al., Antimicrob., 1985;28:766; Heifetz, et. al., Antimicrob., 1974;6:124). The results of the evaluation are shown in Tables 1A and B. In the tables, “—” means no data.

H. influenzae HI-3542 = conditions: Haemophilus influenzae, HI3542; Gram Negative Bacteria; Table 1A; read-out: Minimum Inhibitory Concentrations, H. influenzae HI-3542
Method: as §1, §2

M. catarrhalis BC-3531 = conditions: Moraxella catarrhalis, BC3531; Gram Negative Bacteria; Table 1A; read-out: Minimum Inhibitory Concentrations, M. catarrhalis BC-3531
Method: as §1, §2

E. faecalis MGH-2 = conditions: Gram Positive Bacteria, Table 1B; for MIC: Enterococcus faecalis, MGH2, read-out: Minimum Inhibitory Concentrations, E. faecalis MGH-2
Method: as §1, §2

S pyogenes C203 = conditions: Gram Positive Bacteria, Table 1B; for MIC: read-out: Minimum Inhibitory Concentrations, S pyogenes C203
Method: as §1, §2

S. aureus UC-76 = conditions: Table 1B; for MIC: Staphylococcus aureus, UC76, Gram Positive Bacteria, read-out: Minimum Inhibitory Concentrations, S. aureus UC-76; for Minimum Inhibitory Concentrations, S. aureus UC-76: Gram Positive Bacteria
Method: as §1, §2

SMILES	MIC (E. faecalis MGH-2) [µg/mL]	MIC (S pyogenes C203) [µg/mL]	MIC (S. aureus UC-76) [µg/mL]	also measured
COc1c(N2CCC(O)C(O)C2)c(F)cc2c(=O)c(C(=O)O)cn(C3CC3)c12 (centres unmarked) [drawing 338]				MIC (E. coli MC4100): 0.25 µg/mL (≈ 0.637 µM); MIC (H. influenzae HI-3542): 0.008 µg/mL (≈ 0.0204 µM); MIC (M. catarrhalis BC-3531): 0.125 µg/mL (≈ 0.319 µM)
COc1c(N2CCCC(O)C2)c(F)cc2c(=O)c(C(=O)O)cn(C3CC3)c12 (centres unmarked) [drawing 339]				MIC (E. coli MC4100): 0.125 µg/mL (≈ 0.332 µM); MIC (H. influenzae HI-3542): 0.002 µg/mL (≈ 0.00531 µM); MIC (M. catarrhalis BC-3531): 0.03 µg/mL (≈ 0.0797 µM)
Cc1c(N2CCCC(O)C2)c(F)cc2c(=O)c(C(=O)O)cn(C3CC3)c12 (centres unmarked) [drawing 340]				MIC (E. coli MC4100): 0.125 µg/mL (≈ 0.347 µM); MIC (H. influenzae HI-3542): 0.015 µg/mL (≈ 0.0416 µM); MIC (M. catarrhalis BC-3531): 0.03 µg/mL (≈ 0.0832 µM)
Cc1c(N2CCCC(C)(O)C2)c(F)cc2c(=O)c(C(=O)O)cn(C3CC3)c12 (centres unmarked) [drawing 341]				MIC (E. coli MC4100): 0.5 µg/mL (≈ 1.34 µM); MIC (H. influenzae HI-3542): 0.06 µg/mL (≈ 0.16 µM); MIC (M. catarrhalis BC-3531): 0.125 µg/mL (≈ 0.334 µM)
COc1c(N2CCC3(CC2)OCCO3)c(F)cc2c(=O)c(C(=O)O)cn(C3CC3)c12 [drawing 343]	0.25 (≈ 0.597 µM)	0.25 (≈ 0.597 µM)	0.015 (≈ 0.0358 µM)	
Cc1c(N2CCC(CCO)CC2)c(F)cc2c(=O)c(C(=O)O)cn(C3CC3)c12 [drawing 345]	0.03 (≈ 0.0772 µM)	0.06 (≈ 0.154 µM)	0.004 (≈ 0.0103 µM)	
COc1c(N2CCC(C(O)CO)CC2)c(F)cc2c(=O)c(C(=O)O)cn(C3CC3)c12 (centres unmarked) [drawing 346]	0.25 (≈ 0.595 µM)	0.25 (≈ 0.595 µM)	0.015 (≈ 0.0357 µM)	
COc1c(N2CCC(O)(CO)CC2)c(F)cc2c(=O)c(C(=O)O)cn(C3CC3)c12 [drawing 347]	1 (≈ 2.46 µM)	1 (≈ 2.46 µM)	0.015 (≈ 0.0369 µM)	
COc1c(N2CCC(CO)CC2)c(F)cc2c(=O)c(C(=O)O)cn(C3CC3)c12 [drawing 348]	0.125 (≈ 0.32 µM)	0.125 (≈ 0.32 µM)	0.015 (≈ 0.0384 µM)	
Cc1c(N2CCC(O)C(C)(C)C2)c(F)cc2c(=O)c(C(=O)O)cn(C3CC3)c12 (centres unmarked) [drawing 349]	8 (≈ 20.6 µM)	8 (≈ 20.6 µM)	0.25 (≈ 0.644 µM)	
COc1c(N2CCC(O)C(C)(C)C2)c(F)cc2c(=O)c(C(=O)O)cn(C3CC3)c12 (centres unmarked) [drawing 350]	0.25 (≈ 0.618 µM)	0.5 (≈ 1.24 µM)	0.015 (≈ 0.0371 µM)	
COc1c(N2CCC(O)C(C)C2)c(F)cc2c(=O)c(C(=O)O)cn(C3CC3)c12 (centres unmarked) [drawing 351]	0.125 (≈ 0.32 µM)	0.25 (≈ 0.64 µM)		Minimum Inhibitory Concentrations, S. aureus UC-76 (S. aureus UC-76): 0.008 µg/mL
COc1c(N2CCC(O)(c3ccccc3)CC2)c(F)cc2c(=O)c(C(=O)O)cn(C3CC3)c12 [drawing 352]	32 (≈ 70.7 µM)	2 (≈ 4.42 µM)	0.25 (≈ 0.553 µM)	
COc1c(N2CCCC(C(O)CO)C2)c(F)cc2c(=O)c(C(=O)O)cn(C3CC3)c12 (centres unmarked) [drawing 353]	8 (≈ 19 µM)	2 (≈ 4.76 µM)	1 (≈ 2.38 µM)	
COc1c(N2CCCC(CO)C2)c(F)cc2c(=O)c(C(=O)O)cn(C3CC3)c12 (centres unmarked) [drawing 354]	0.125 (≈ 0.32 µM)	0.25 (≈ 0.64 µM)	0.015 (≈ 0.0384 µM)	
COc1c(N2CCCC(O)(CO)C2)c(F)cc2c(=O)c(C(=O)O)cn(C3CC3)c12 (centres unmarked) [drawing 355]	1 (≈ 2.46 µM)	2 (≈ 4.92 µM)	0.06 (≈ 0.148 µM)	
COc1c(N2CCC(O)C(C)C2)c(F)cc2c(=O)c(C(=O)O)cn(C3CC3)c12 (centres unmarked) [drawing 356]				Minimum Inhibitory Concentrations, E. faecalis MGH-2 (E. faecalis MGH-2): 0.125 µg/mL; Minimum Inhibitory Concentrations, S pyogenes C203 (S pyogenes C203): 0.25 µg/mL; Minimum Inhibitory Concentrations, S. aureus UC-76 (S. aureus UC-76): 0.0008 µg/mL
COc1c(N2CCC(O)C(O)C2)c(F)cc2c(=O)c(C(=O)O)cn(C3CC3)c12 (centres unmarked) [drawing 357]	0.125 (≈ 0.319 µM)	0.125 (≈ 0.319 µM)	0.008 (≈ 0.0204 µM)	
COc1c(N2CCCC(O)C2)c(F)cc2c(=O)c(C(=O)O)cn(C3CC3)c12 (centres unmarked) [drawing 358]	0.002 (≈ 0.00531 µM)	0.125 (≈ 0.332 µM)	0.03 (≈ 0.0797 µM)	
Cc1c(N2CCCC(O)C2)c(F)cc2c(=O)c(C(=O)O)cn(C3CC3)c12 (centres unmarked) [drawing 359]	0.125 (≈ 0.347 µM)	0.125 (≈ 0.347 µM)	0.015 (≈ 0.0416 µM)	
Cc1c(N2CCCC(C)(O)C2)c(F)cc2c(=O)c(C(=O)O)cn(C3CC3)c12 (centres unmarked) [drawing 360]	0.5 (≈ 1.34 µM)	0.03 (≈ 0.0801 µM)		
